Laboratory results: PubChem BioAssay AID743372 (Vanderbilt Specialized Chemistry Center, 2014)

Molecular target: D(4) dopamine receptor (Homo sapiens) (UniProt P21917)
Assay: D4 dopamine receptor antagonists, confirmation, cell-based, human (AID 743372)
Details: cells expressing human D4 receptor, antagonist mode

`COc1ccc(CN2CCO[C@@H](CCc3ccccc3)C2)cc1` gave an IC50 of 100 nM.

`c1ccc(CCC2CN(Cc3ccccc3)CCO2)cc1` (stereo unspecified) showed an IC50 of 1480 nM.

`FC(F)(F)Oc1ccc(CN2CCO[C@H](CCc3ccccc3)C2)cc1` gave an IC50 of 230 nM.

`Clc1ccc(CN2CCOC(CCc3ccccc3)C2)cc1` (stereo unspecified) gave an IC50 of 290 nM.

With `COc1ccc(CN2CCOC(CCc3ccccc3)C2)cc1` (stereo unspecified) the IC50 was 170 nM.

With `FC(F)(F)Oc1cccc(CN2CCOC(CCc3ccccc3)C2)c1` (stereo unspecified) the IC50 was 390 nM.

For `Clc1ccc(CN2CCO[C@H](CCc3ccccc3)C2)cc1`, the IC50 was 130 nM.

`Cc1ccccc1CN1CCOC(CCc2ccccc2)C1` (stereo unspecified) was tested, and the IC50 was 3680 nM.

`FC(F)(F)Oc1ccc(CN2CCOC(CCc3ccccc3)C2)cc1` (stereo unspecified) gave an IC50 of 160 nM.

For `Fc1cccc(F)c1CN1CCOC(CCc2ccccc2)C1` (stereo unspecified), the IC50 was 3880 nM.

`Fc1ccc(CN2CCOC(CCc3ccccc3)C2)cc1` (stereo unspecified) gave an IC50 of 1140 nM.
